Results from US20040058903A1, “Benzamide compounds as apo b secretion inhibitors” (priority 2000, published 2004).

Tests used:
ddY-mice = assay: Lipids lowering effect on ddY-mice; type: in vivo; details: male ddY-mice, oral dose 32 mg/kg, 2 hr after administration, percent relative to baseline (0 hr); for Cholesterol (% of 0 hr) 2 hr: plasma total-cholesterol; for Triglyceride (% of 0 hr) 2 hr: plasma triglyceride
From the text: Test 2: Lipids Lowering Effect on ddY-Mice
Male ddy-mice were housed in temperature- and humidity-controlled rooms and fed with laboratory chow. The animals were randomized according to their body weight and deprived of food just before the experiment. A blood sample (baseline blood sample) was collected from the retro orbital venous plexus before administration of the test drug, and then the animals were orally dosed with the test drug in a vehicle (aqueous solution of 0.5% methylcellulose). Blood samples were drawn at 2 hours after drug administration for the measurement of cholesterol and triglyceride.
Plasma total-cholesterol and plasma triglyceride were determined by conventional enzyme-methods using commercially available kits. The cholesterol CII-Test Wako (Wako Pure Chemical Industries, Ltd.) was used for the measurement of cholesterol, and the triglyceride E-test Wako (Wako Pure Chemical Industries, Ltd.) was used for the measurement of triglyceride.
Lipids lowering effects were shown in percent relative to the baseline level (level at 0 hr).

Apo B secretion = assay: Measurement of inhibition of Apo B secretion (HepG2 cells, ELISA); type: cell-based; details: 15-hour incubation, 0.1% DMSO treated cells as controls; for inhibition at 1 µM: Homo sapiens, 10^−6 M
Method: Test 1: Measurement of Inhibition of Apo B Secretion
HepG2 cells were seeded in Eagles medium containing 10% fetal calf serum (FCS) at a density of 30000 cells/well in 96-well plates and allowed to grow for 3 days before treatment. At this time, the medium was replaced with fresh medium containing 0.1% dimethyl sulfoxide (DMSO) and the indicated concentrations of a test compound. After 15-hour incubation, the amount of Apo B and Apo AI accumulated in the media was determined by ELISA.
The assay was carried out at room temperature. A flat bottomed micro ELISA plate (manufactured by Nunc) was coated with an anti Apo B monoclonal antibody solution ([…] in 0.05% carbonate buffer, pH 9.6) by adding the antibody solution at a volume of 100 μl per well. After 1-hour incubation on a plate mixer, the unbound materials were removed by washing the well 3 times with a washing buffer (phosphate buffered saline, pH 7.2 containing 0.1% bovine serum albumin and 0.05% Tween-20). Then 20 μl of […] and 100 μl of a solution of peroxidase coupled anti Apo B antibody were added. After 1-hour incubation on a plate mixer, washing was performed 3 times to remove the unbound materials. A freshly prepared substrate solution (2.5 mg/ml ortho-phenylene diamine and 0.018% H2Oz in 0.11 M Na2HPO4-0.044 M sodium citrate buffer, pH 5.4) at a volume of 200 μl was then added to each well. After 20-minute incubation, the enzyme reaction was terminated by adding 50 μl of 0.5 M sulfuric acid. Absorbance of each well was determined at 490 nm using a microplate reader. Apo B concentration was calculated from a standard curve generated from purified Apo B standard that was run in parallel in the same plate. Inhibition of Apo B secretion by the test compound is calculated taking […] treated cells as controls.
Measurement of Apo AI was performed similar to that of Apo B, except for diluting the sample 11-fold with a dilution buffer (phosphate buffered saline, pH 7.2 containing 0.5% bovine serum albumin and 0.05% Tween-20). […]

| SMILES | Cholesterol (% of 0 hr) 2 hr (ddY-mice) | Triglyceride (% of 0 hr) 2 hr (ddY-mice) | inhibition at 1 µM (Apo B secretion) | Inhibition of Apo B secretion at 10^−6 M (%) (Apo B secretion) |
| --- | --- | --- | --- | --- |
| O=C(Nc1ccc(CCCc2ccccn2)cc1)c1ccccc1-c1ccc(C(F)(F)F)cc1 [Example 25, N-{4-[3-(2-pyridinyl)propyl]phenyl}-4′-(trifluoromethyl)-1,1′-biphenyl-2-carboxamide] | 78 % of 0 hr | 23 % of 0 hr | – | – |
| Nc1cccc(CCCc2ccc(NC(=O)c3ccccc3-c3ccc(C(F)(F)F)cc3)cc2)n1 [Example 44, N-{4-[3-(6-amino-2-pyridinyl)propyl]phenyl}-4′-(trifluoromethyl)-1,1′-biphenyl-2-carboxamide] | – | – | 100% | – |
| O=C(Nc1ccc(NCCc2ccccn2)cc1)c1ccccc1-c1ccc(C(F)(F)F)cc1 [Example 59, N-(4-{[2-(2-pyridinyl)ethyl]amino}phenyl)-4′-(trifluoromethyl)-1,1′-biphenyl-2-carboxamide] | 77 % of 0 hr | 15 % of 0 hr | – | – |
| O=C(Nc1ccc(NCCc2ccccn2)cc1)c1ccccc1Nc1cccc(C(F)(F)F)c1 [Example 64, N-(4-{[2-(2-pyridinyl)ethyl]amino}phenyl)-2-[3-(trifluoromethyl)-anilino]benzamide] | – | – | 100% | – |
| O=C(Cc1ccccn1)Nc1ccc(NC(=O)c2ccccc2-c2ccc(C(F)(F)F)cc2)cc1 [Example 65, N-{4-[(2-pyridinylacetyl)amino]phenyl]-4′-(trifluoromethyl)-1,1′-biphenyl-2-carboxamide] | 83 % of 0 hr | 36 % of 0 hr | – | 92.2% |
